Key:
[1] = system: colon cancer cell line HCT116; experiment: Apoptosis of colon cancer cell line HCT116; format: cell-based; settings: 12.5 μM for 72 h
Ras/Raf interaction = experiment: In vitro competition of Ras/Raf interaction (immunoprecipitation from cell lysates, blot); format: binding, Human; settings: 1.5 mM of peptides, 30 min, room temperature; FIGS. 2A, 2B
Description: FIGS. 2A and 2B show in vitro competition of Ras/Raf interaction. Cells were lysed for 20 min at 4° C. in lysis buffer (50 mM Tris (pH 8), 1% Nonidet P-40, 137 mM NaCl, 1 mM MgCl2, 1 mM CaCl2, 10% glycerol, and protease inhibitor mixture). Lysates (800 μg of protein) were immunoprecipitated with the appropriate Ab overnight at 4° C., and protein A-Sepharose was added for 1 h at 4° C. After washing with 1×TBST (20 mM Tris-HCl (pH 7.5), 150 mM NaCl, 0.05% Tween 20), the Ras/Raf interaction was competed using peptides Mut3DPT-Ras (A) or Mut3DPT-Raf+Mut3DPT-Raf2 (B) at a concentration of 1.5 mM for 30 min at room temperature. After a washing, immunoprecipitates were transferred to nitrocellulose and blotted with the corresponding Ab.
The Ras/Raf interaction was competed using peptides corresponding to the binding site of Ras to Raf and vice versa. Lysates from MDA-MB321 or BC52 cell lines were immunoprecipitated with anti-Ras or anti-Raf Ab, and protein A-Sepharose was added. The Ras/Raf interaction was competed with 1.5 mM of peptides (30 min, room temperature). After washing steps, immunoprecipitates were transferred to nitrocellulose and blotted with the corresponding Ab. Proteins were detected using the ECL system.

[2] = system: K-Ras mutated cell line SW626; experiment: Apoptosis by Annexin V-FITC staining, SW626; format: cell-based, Human; settings: SW626, 100 μM for 24 h; FIG. 3C
Description: FIGS. 3A to 3D show effect of peptides on apoptosis. A) MDA-MB231 cell line (mutated K-Ras) was cultured in the presence of the identified peptides at a concentration of 100 μM for 24 h. Apoptosis was detected by Annexin V-FITC staining and analyzed by flow cytometry. B) MDA-MB231 cell line was cultured as above, but to a concentration of 10 or 25 μM peptides. Apoptosis was estimated by annexin V-FITC staining. C) The K-Ras mutated cell line SW626 was cultured and analyzed as in A. D) The wild type K-RAs cell line BC 227 was cultured and analyzed as in A.
Apoptotic cells were detected using Annexin-V (-FITC from BD biosciences) as described by the manufacturer. Briefly, the cells were washed in 1× binding buffer, centrifugated and then resuspended in 200 μl of 1× binding buffer containing Annexin V-FITC (0.1 μg/ml) and PI (0.5 μg/ml). After incubation at room temperature in the dark for 10 min, cells were analyzed by flow cytometry. Data acquired by FACSCalibur (BD biosciences) were analyzed with Cellquest Pro software.

[3] = system: primary tumor cells of chronic lymphocytic leukemia (CLL); experiment: Apoptosis of primary tumor cells of chronic lymphocytic leukemia; format: cell-based

Sequence	apoptosis of HCT116 [1]	competition of the Ras/Raf interaction in vitro (Ras/Raf interaction)	apoptotic effect [2]	effect on CLL B and non-B cells [3]
VKKKKIKAEIKIHEHKGKKARLDWNTDAAS (chimeric peptide) [Mut3DPT-Raf2]	cause apoptosis			
VKKKKIKAEIKIKMSKDGKKKKKKSKTKCVIM (chimeric peptide) [Mut3DPT-Ras]		able to compete in vitro the interaction Ras/Raf	lower level of apoptosis	marked effect
